pEC50, pIC50: −log10 of the molar value.
How the values were obtained:
K562 = experiment: Cytotoxicity against PKC sensitive human K562 cells assessed as inhibition of cell growth measured after 7 days by Cell Titer Aqueous96 one solution reagent assay; type: functional, cell-based; details: K562, 168 h
Neutrophil = experiment: Induction of ROS production in human polymorphonuclear neutrophils incubated for 10 mins by DHE staining based fluorescence assay; type: functional, cell-based

Row | Compound | pIC50 (K562) | pEC50 (Neutrophil)
1 | C/C=C(\C)C(=O)O[C@@H]1[C@@H](C)[C@@]2(O)[C@H]([C@@H]3C(C)(C)[C@]13OC(=O)[C@@H](C)CC)[C@@H]1O[C@]1(COC(=O)CCCCCCC/C=C\C/C=C\CCCCC)[C@@H](O)[C@]1(O)C(=O)C(C)=C[C@H]12 | 6.91 | < 5.44
2 | C/C=C(\C)C(=O)O[C@@H]1[C@@H](C)[C@@]2(O)[C@H]([C@@H]3C(C)(C)[C@]13OC(=O)[C@@H](C)CC)[C@@H]1O[C@]1(CO)[C@@H](O)[C@]1(O)C(=O)C(C)=C[C@H]12 [TIGILANOL TIGLATE] | 7.92 | 6.90

— ChEMBL document CHEMBL5120970, “Cryptic Epoxytiglianes from the Kernels of the Blushwood Tree (Fontainea picrosperma)” (J Nat Prod, 2022)
